The results in this text go back to patent US20250270246A1, “LINCOSAMIDES AND USES THEREOF” (President and Fellows of Harvard College, priority 2022, published 2025).

Structures can show the parent of a compound that is named as a salt. Where two headings read alike, the source gives them in different places. Some results are limits rather than exact numbers.

What all share (assay): MIC by broth microdilution (CLSI)
Format in all cases: cell-based

The subject of assay [1] is E. coli ATCC 25922 (HAV#006). Particulars: Escherichia coli, ATCC25922, 24 h, read-out: MIC E. coli ATCC 25922. The gist of the method: (§1)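 Testing follows CLSI broth microdilution; P. aeruginosa is run in Chelex 100-pretreated cation-adjusted broth, other organisms in untreated cation-adjusted Mueller-Hinton broth. Final inoculum is 5×10^5 CFU/mL and the top concentration is 64 μg/mL. MICs reflect inhibition of visible growth at 24 h.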

The test system of assay [2] is E. coli HAV#040, LptD. As to conditions: Escherichia coli, 24 h, read-out: MIC E. coli HAV#040, LptD. The gist of the method: as §1
For assay [3], the system named is A. baumannii ATCC 19606 (HAV#010). As to conditions: Acinetobacter baumannii, ATCC19606, 24 h, HAV#010, ATCC 19606; CaMHB, 24 h incubation; read-out: MIC A. baumannii ATCC 19606. The procedure, abridged:
as §1

For assay [4], the system named is S. aureus HAV#216, cfr. Particulars: Staphylococcus aureus; cfr; CaMHB, 24 h incubation; read-out: MIC S. aureus HAV#216, cfr. The gist of the method: as §1
The subject of assay [5] is E. faecium HAV#318, VRE; clinical. Particulars: Enterococcus faecium, CaMHB, 24 h incubation, read-out: MIC E. faecium HAV#318, VRE. The gist of the method: as §1
Assay [6] has as its system E. coli HAV#038, ΔTolC. Particulars: Escherichia coli, 24 h, read-out: MIC E. coli HAV#038, ΔTolC. The procedure, abridged: as §1
Assay [7] relates to K. pneumoniae HAV#402, FQ-R. As to conditions: Klebsiella pneumoniae; FQ-R; CaMHB, 24 h incubation; read-out: MIC K. pneumoniae HAV#402, FQ-R. The gist of the method: as §1
Assay [8] concerns S. aureus ATCC 29213 (HAV#001). As to conditions: Staphylococcus aureus, ATCC29213, 24 h, read-out: MIC S. aureus ATCC 29213. The procedure, abridged: as §1
Assay [9] deals with S. aureus HAV#031, c-ermA. Particulars: Staphylococcus aureus; c-ermA; CaMHB, 24 h incubation; read-out: MIC S. aureus HAV#031, c-ermA. The gist of the method: as §1
Assay [10] has as its system E. faecium JMI-990536. As to conditions: Enterococcus faecium, JMI990536, 24 h, JMI-990536; CaMHB, 24 h incubation; read-out: MIC E. faecium JMI-990536. The gist of the method: as §1
Assay [11] deals with S. aureus Clinical (cfr). Particulars: Staphylococcus aureus, 24 h, read-out: MIC S. aureus Clinical (cfr). The gist of the method:
as §1

Assay [12] concerns E. faecalis ATCC 29212 (HAV#005). As to conditions: Enterococcus faecalis, ATCC29212, 24 h, read-out: MIC E. faecalis ATCC 29212. The gist of the method: as §1
Assay [13] relates to E. coli ΔtolC. As to conditions: Escherichia coli, 24 h, read-out: MIC E. coli ΔtolC, ΔtolC; CaMHB, 24 h incubation. The procedure, abridged: as §1
Assay [14] relates to S. aureus MMX 3035. As to conditions: Staphylococcus aureus, MMX3035, 24 h, read-out: MIC S. aureus MMX 3035. The gist of the method: as §1
For assay [15], the system named is E. coli lptD mutant. Particulars: Escherichia coli, 24 h, read-out: MIC E. coli lptD mutant, lptD mutant / ΔlptD mutant; CaMHB, 24 h incubation. The gist of the method:
as §1

Assay [16] has as its system K. pneumoniae JMI-991193. Particulars: Klebsiella pneumoniae, JMI991193, 24 h, read-out: MIC K. pneumoniae JMI-991193. The procedure, abridged:
as §1

Assay [17] relates to S. pneumoniae c-ermB. As to conditions: Streptococcus pneumoniae, 24 h, read-out: MIC S. pneumoniae c-ermB. The gist of the method:
as §1

For assay [18], the system named is E. coli Clinical (armA). As to conditions: Escherichia coli, 24 h, read-out: MIC E. coli Clinical (armA). The procedure, abridged: as §1
Where [19] appears, read: HAV#006, ATCC 25922, CaMHB, 24 h incubation.
Setting [20] is: HAV#001, ATCC 29213, CaMHB, 24 h incubation.

Turning to `CC(C)C[C@@H]1CCO[C@@H]2[C@H](CN[C@@H]2C(=O)N[C@H]2[C@H]3OC(SC/C=C/CC2(C)C)[C@H](O)C(O)C3O)C1` (single isomer, unassigned) [FSA1504066A, formate salt], the MIC in assay [1] (setting [19]) was 32 mg/L; in assay [2] it was 2 mg/L; in [3], 8 mg/L; in assay [4], above 64 mg/L; in [5], 1 mg/L; in assay [6], 1 mg/L. For the same compound, the MIC in assay [7] was 32 mg/L; in assay [8] (setting [20]) it was at most 0.06 mg/L; in assay [9], 4 mg/L.
Turning to `CC(C)C[C@@H]1CCO[C@@H]2[C@H](CN[C@@H]2C(=O)N[C@H]2C3OC(SC/C=C\CC2(C)C)C(O)C(O)C3O)C1` (single isomer, unassigned) [FSA1504066B, formate salt], the MIC in [1] (setting [19]) is 64 mg/L; in [2] it was 64 mg/L; in assay [3], 64 mg/L; in assay [4], above 64 mg/L; in assay [5], 4 mg/L; in assay [6], 32 mg/L. Further, the MIC was found to be 64 mg/L in assay [7], 0.5 mg/L in assay [8] (setting [20]) and 32 mg/L in assay [9].
Turning to `CC(C)C[C@@H]1CCO[C@@H]2[C@H](CN[C@@H]2C(=O)N[C@@H]2C/C=C\C[C@H](CO)S[C@H]3O[C@H]2[C@H](O)[C@H](O)[C@H]3O)C1` [FSA1606033, (4S,5aS,8S,8aR)-4-isobutyl-N-((1R,3R,8R,9R,10R,11S,12R,Z)-10,11,12-trihydroxy-3-(hydroxymethyl)-13-oxa-2-thiabicyclo[7.3.1]tridec-5-en-8-yl) octahydro-2H-oxepino[2,3-c]pyrrole-8-carboxamide hydrochloride salt], the MIC is 16 mg/L in assay [10]; 32 mg/L in assay [11] (Clinical (cfr), CaMHB, 24 h incubation); 1 mg/L in assay [12] (HAV#005, ATCC 29212, CaMHB, 24 h incubation); 16 mg/L in assay [1] (setting [19]); 64 mg/L in assay [3]; 1 mg/L in [13]. The MIC in assay [14] (MMX 3035, CaMHB, 24 h incubation) was 16 mg/L; in assay [15], 4 mg/L; in assay [16] (JMI-991193, CaMHB, 24 h incubation), above 64 mg/L; in assay [8] (setting [20]), 1 mg/L; in assay [17], 4 mg/L.
`CC(C)C[C@@H]1CCO[C@@H]2[C@H](CN[C@@H]2C(=O)N[C@@H]2C/C=C\C[C@H](CN)S[C@H]3O[C@H]2[C@H](O)[C@H](O)[C@H]3O)C1` [FSA1608082, (4S,5aS,8S,8aR)—N-((1R,3R,8R,9R,10R,11S,12R,Z)-3-(aminomethyl)-10,11,12-trihydroxy-13-oxa-2-thiabicyclo[7.3.1]tridec-5-en-8-yl)-4-isobutyloctahydro-2H-oxepino[2,3-c]pyrrole-8-carboxamide hydrochloride salt]: the MIC is 16 mg/L in assay [11]; 2 mg/L in assay [12]; 32 mg/L in assay [1]; 2 mg/L in [13]; 16 mg/L in [14]; 1 mg/L in [15]. In addition, the MIC in assay [16] is above 64 mg/L; in assay [8], 1 mg/L; in [18], 64 mg/L.
As to `CC(C)C[C@@H]1CCO[C@@H]2[C@H](CN[C@@H]2C(=O)N[C@@H]2C/C=C\C[C@@H](CN)S[C@H]3O[C@H]2[C@H](O)[C@H](O)[C@H]3O)C1` [FSA1608083, (4S,5aS,8S,8aR)—N-((1R,3S,8R,9R,10R,11S,12R,Z)-3-(aminomethyl)-10,11,12-trihydroxy-13-oxa-2-thiabicyclo[7.3.1]tridec-5-en-8-yl)-4-isobutyloctahydro-2H-oxepino[2,3-c]pyrrole-8-carboxamide hydrochloride salt], the MIC was found to be 32 mg/L in [11]; 1 mg/L in assay [12]; 16 mg/L in assay [1]; 2 mg/L in assay [13]; 16 mg/L in assay [14]; 1 mg/L in assay [15]. For the same compound, the MIC in assay [16] is above 64 mg/L; in assay [8], 1 mg/L; in [18], 64 mg/L.
Take `CC(C)C[C@@H]1CCO[C@@H]2[C@H](CN[C@@H]2C(=O)N[C@@H]2C/C=C\C[C@@H](CNC(=O)c3ccc(F)cc3)S[C@H]3O[C@H]2[C@H](O)[C@H](O)[C@H]3O)C1` [FSA1608088, (4S,5aS,8S,8aR)—N-((1R,3S,8R,9R,10R,11S,12R,Z)-3-((4-fluorobenzamido)methyl)-10,11,12-trihydroxy-13-oxa-2-thiabicyclo[7.3.1]tridec-5-en-8-yl)-4-isobutyloctahydro-2H-oxepino[2,3-c]pyrrole-8-carboxamide formate salt]: the MIC in [11] was 8 mg/L; in [12] it was 1 mg/L; in assay [1], 8 mg/L; in assay [13], 2 mg/L; in assay [14], 8 mg/L; in [15] it was 0.5 mg/L. The MIC in [16] was found to be 32 mg/L; in assay [8] it was 1 mg/L; in assay [18], 16 mg/L.
`CC(C)C[C@@H]1CCO[C@@H]2[C@H](CN[C@@H]2C(=O)N[C@@H]2C/C=C\C[C@H](CNC(=O)c3ccc(F)cc3)S[C@H]3O[C@H]2[C@H](O)[C@H](O)[C@H]3O)C1` [FSA1608089, (4S,5aS,8S,8aR)—N-((1R,3R,8R,9R,10R,11S,12R,Z)-3-((4-fluorobenzamido)methyl)-10,11,12-trihydroxy-13-oxa-2-thiabicyclo[7.3.1]tridec-5-en-8-yl)-4-isobutyloctahydro-2H-oxepino[2,3-c]pyrrole-8-carboxamide formate salt]: the MIC in assay [11] came out at 8 mg/L; in assay [12], 1 mg/L; in assay [1], 16 mg/L; in [13], 2 mg/L; in [14], 8 mg/L; in assay [15], 1 mg/L. The MIC in [16] was above 64 mg/L; in assay [8], 2 mg/L; in [18], 64 mg/L.
As for `CC(C)C[C@@H]1CCO[C@@H]2[C@H](CN[C@@H]2C(=O)N[C@H]2[C@H]3O[C@H](S[C@H](CF)C/C=C\[C@H]2C)[C@H](O)[C@@H](O)[C@H]3O)C1` [FSA1609034, (4S,5aS,8S,8aR)—N-((1R,3S,7R,8R,9R,10R,11S,12R,Z)-3-(fluoromethyl)-10,11,12-trihydroxy-7-methyl-13-oxa-2-thiabicyclo[7.3.1]tridec-5-en-8-yl)-4-isobutyloctahydro-2H-oxepino[2,3-c]pyrrole-8-carboxamide formate salt], the MIC in [11] was 0.25 mg/L; in [12], at most 0.06 mg/L; in [1] it was 1 mg/L; in [13] it was at most 0.06 mg/L; in assay [14], 0.25 mg/L; in assay [15] it was 0.25 mg/L. In addition, the MIC in assay [16] is 2 mg/L; in [8], at most 0.06 mg/L; in assay [18], 2 mg/L.
